In patent US20230090552A1, “ALK5 INHIBITOR CONJUGATES AND USES THEREOF” (Synthis Therapeutics, Inc., priority 2020, published 2023):

Assays:
ALK5 = target: T1, ALK5 (Homo sapiens, UniProt P36897); test: recombinant kinase assays (IC50 and Ki); assay type: biochemical; details: versus Compound N
T1 sequence (P36897 34-503): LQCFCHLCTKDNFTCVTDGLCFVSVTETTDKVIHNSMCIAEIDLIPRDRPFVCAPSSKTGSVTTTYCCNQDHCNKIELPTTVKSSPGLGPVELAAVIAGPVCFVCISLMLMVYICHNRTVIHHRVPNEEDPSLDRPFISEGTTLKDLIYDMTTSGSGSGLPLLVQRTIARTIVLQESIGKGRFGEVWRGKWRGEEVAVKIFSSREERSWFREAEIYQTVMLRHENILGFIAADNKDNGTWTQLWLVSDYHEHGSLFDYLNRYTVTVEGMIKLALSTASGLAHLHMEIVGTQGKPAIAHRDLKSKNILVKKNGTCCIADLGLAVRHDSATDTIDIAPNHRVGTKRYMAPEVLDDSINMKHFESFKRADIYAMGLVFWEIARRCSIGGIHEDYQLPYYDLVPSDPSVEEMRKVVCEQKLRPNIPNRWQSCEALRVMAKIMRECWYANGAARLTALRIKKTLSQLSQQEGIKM
Excerpt: Compound N was compared to Compound C in a number of in vitro assays.

IPF disease progression = details: patients with mild-moderate disease; cited from earlier work

fold more potent than Compound N in the kinase assays (ALK5) [fold] | SMILES | reduced risk of IPF disease progression (IPF disease progression) [%]
10 | CNCCOc1ccc(-c2cc(-c3c[nH]nc3-c3cccc(C)n3)ccn2)cc1 [Compound C, N-methyl-2-(4-(4-(3-(6-methylpyridin-2-yl)-1H-pyrazol-4-yl)pyridin-2-yl)phenoxy)ethan-1-amine] | 
 | COC(=O)c1ccc2c(c1)NC(=O)/C2=C(\Nc1ccc(N(C)C(=O)CN2CCN(C)CC2)cc1)c1ccccc1 [nintedanib] | 50
 | Cc1ccc(=O)n(-c2ccccc2)c1 [pirfenidone] | 50
